For orientation: IC50 means the concentration that gives 50% inhibition.

Bounds are passed on as bounds.

This assay has as its target T1, HCV NS3 helicase (Hepatitis C virus genotype 1b, UniProt P26663).
T1 construct: full-length NS3 (1-631), purified at Array BioPharma
Nature of the assay: HCV Helicase Prompt FRET Assay (Example A). It is filed as biochemical. The settings on record: HCV NS3 helicase; tables do not say whether Example A or Example B assay; read-out: IC50 Activity. The procedure, abridged: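 Initial unwinding rates, monitored as FAM fluorescence gain (ex 485, em 535) over ~30 min at room temperature, gave IC50 via 4- or 5-parameter logistic fits. Reactions: 50 nM quenched duplex, 250 nM capture strand, 300 μM ATP, 5–6 nM NS3 1-631 after 5 min compound preincubation, MOPS pH 7.0 buffer, 2% DMSO.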

T1 sequence (P26663 1027-1657): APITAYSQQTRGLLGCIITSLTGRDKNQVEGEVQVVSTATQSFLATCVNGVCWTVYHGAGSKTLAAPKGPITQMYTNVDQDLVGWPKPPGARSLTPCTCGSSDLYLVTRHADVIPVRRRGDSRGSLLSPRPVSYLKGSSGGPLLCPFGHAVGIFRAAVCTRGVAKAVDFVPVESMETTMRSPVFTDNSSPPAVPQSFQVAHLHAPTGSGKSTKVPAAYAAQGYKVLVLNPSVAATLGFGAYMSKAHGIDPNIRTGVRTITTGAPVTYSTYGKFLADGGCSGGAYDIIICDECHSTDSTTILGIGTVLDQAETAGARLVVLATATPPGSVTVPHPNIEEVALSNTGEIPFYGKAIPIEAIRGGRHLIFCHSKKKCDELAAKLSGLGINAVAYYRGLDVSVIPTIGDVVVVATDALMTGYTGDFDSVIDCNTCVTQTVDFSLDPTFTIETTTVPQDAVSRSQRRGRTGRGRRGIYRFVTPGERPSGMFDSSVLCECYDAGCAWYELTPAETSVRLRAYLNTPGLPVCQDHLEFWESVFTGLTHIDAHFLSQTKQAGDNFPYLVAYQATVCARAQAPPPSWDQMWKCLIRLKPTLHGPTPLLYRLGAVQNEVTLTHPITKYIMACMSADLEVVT

Regarding `CSc1ccccc1-c1ccc(Cc2[nH]c3ccccc3c2CC(=O)O)cc1` [Example 288], the IC50 was below 10 µM.
`O=C(O)Cc1c(Cc2ccc(-c3ccc(Cl)cc3Cl)cc2)[nH]c2ccccc12` [Example 289]: the IC50 was below 10 µM.
For `O=C(O)Cc1c(Cc2ccc(-c3cccc(Cl)c3Cl)cc2)[nH]c2ccccc12` [Example 290], the IC50 is below 10 µM.
Regarding `Cc1ccc(-c2ccc(Cc3[nH]c4ccccc4c3CC(=O)O)cc2)cc1Cl` [Example 291], the IC50 is below 10 µM.
The figure for `CC(=O)Nc1ccc(-c2ccc(Cc3[nH]c4ccccc4c3CC(=O)O)cc2)cc1` [Example 292] is 10 to 50 µM.
The figure for `CC(=O)Nc1cccc(-c2ccc(Cc3[nH]c4ccccc4c3CC(=O)O)cc2)c1` [Example 293] is 10 to 50 µM; for `O=C(O)Cc1c(Cc2ccc(-c3ccccc3Cl)cc2)[nH]c2ccc(Br)cc12` [Example 294] it is below 10 µM; for `O=C(O)Cc1c(Cc2ccc(-c3ccccc3)cc2)[nH]c2ccccc12` [Example 295] it is below 10 µM.
As for `O=C(O)Cc1c(Cc2cccc(-c3cccc(C(F)(F)F)c3)c2)[nH]c2ccccc12` [Example 296], the IC50 was below 10 µM.
For `CSc1cccc(-c2cccc(Cc3[nH]c4ccccc4c3CC(=O)O)c2)c1` [Example 297] the value was below 10 µM; for `COc1cccc(-c2cccc(Cc3[nH]c4ccccc4c3CC(=O)O)c2)c1` [Example 298], below 10 µM; for `COc1ccc(-c2cccc(Cc3[nH]c4ccccc4c3CC(=O)O)c2)cc1` [Example 299], below 10 µM.
As for `O=C(O)Cc1c(Cc2cccc(-c3cccc(CO)c3)c2)[nH]c2ccccc12` [Example 300], the IC50 was below 10 µM.
For `NC(=O)c1cccc(-c2cccc(Cc3[nH]c4ccccc4c3CC(=O)O)c2)c1` [Example 301] the value was 10 to 50 µM.
Turning to `CC(C)c1cccc(-c2cccc(Cc3[nH]c4ccccc4c3CC(=O)O)c2)c1` [Example 302], the IC50 is below 10 µM.
On to `O=C(O)Cc1c(Cc2cccc(-c3cccc(Cl)c3Cl)c2)[nH]c2ccccc12` [Example 303], for which the IC50 is below 10 µM.
Turning to `O=C(O)Cc1c(Cc2ccc(-c3ccccc3)cc2)oc2ccccc12` [Example 305], the IC50 fell in the range of 10 to 50 µM.
The figure for `O=C(O)Cc1c(Cc2ccc(-c3ccccc3)cc2)sc2ccccc12` [Example 306] is below 10 µM; for `O=C(O)Cc1c(Cc2cccc(-c3cccc(Cl)c3Cl)c2)oc2ccccc12` [Example 307] it is below 10 µM; for `O=C(O)Cc1c(Cc2cccc(-c3ccc(Cl)cc3Cl)c2)oc2ccccc12` [Example 308] it is below 10 µM.
The figure for `O=C(O)Cc1c(Cc2cccc(-c3ccc(Cl)c(Cl)c3)c2)oc2ccccc12` [Example 309] is below 10 µM; for `O=C(O)Cc1c(Cc2cccc(-c3cc(Cl)cc(Cl)c3)c2)oc2ccccc12` [Example 310] it is below 10 µM.
For the compound `CC(C)c1cccc(-c2cccc(Cc3oc4ccccc4c3CC(=O)O)c2)c1` [Example 311], the IC50 is below 10 µM.
In the case of `O=C(O)Cc1c(C(=O)c2ccc(-c3ccccc3)cc2)[nH]c2ccc(Br)cc12` [Example 312], the IC50 lay within 10 to 50 µM.
With `Cc1cc([N+](=O)[O-])ccc1-n1cc(CP(=O)(O)O)c2cc(Br)ccc21` [Example 313], the IC50 lay within 10 to 50 µM.
For `CS(=O)(=O)c1ccc(-n2cc(CP(=O)(O)O)c3cc(Br)ccc32)cc1` [Example 314] the value was 10 to 50 µM; for `O=P(O)(O)Cc1cn(-c2ccc(S(=O)(=O)CCO)cc2)c2ccc(Br)cc12` [Example 315], 10 to 50 µM.
For `N#Cc1ccnc(-n2cc(CP(=O)(O)O)c3cc(Br)ccc32)c1` [Example 316] the value was 10 to 50 µM; for `O=[N+]([O-])c1ccc(-n2cc(CP(=O)(O)O)c3cc(Br)ccc32)nc1` [Example 317], below 10 µM.
As to `O=C(O)Cc1c[nH]c2ncccc12` [Example 318], the IC50 was above 50 µM.
On to `Cc1cc([N+](=O)[O-])ccc1-n1cc(CC(=O)O)c2cccnc21` [Example 319], for which the IC50 was above 50 µM.
`Cc1cc([N+](=O)[O-])ccc1-n1cc(I)c2cc(Br)cnc21` [Example 320]: the IC50 was above 50 µM.
The figure for `C#Cc1cn(-c2ccc([N+](=O)[O-])cc2C)c2ncc(Br)cc12` [Example 321] is above 50 µM; for `COC(=O)/C=C/c1cnc2c(c1)c(/C=C/C(=O)OC)cn2-c1ccc([N+](=O)[O-])cc1C` [Example 322] it is 10 to 50 µM.
With `Cc1cc([N+](=O)[O-])ccc1-n1cc(/C=C/C(=O)O)c2cc(/C=C/C(=O)O)cnc21` [Example 323], the IC50 was above 50 µM.
Take `Cc1cc([N+](=O)[O-])ccc1-n1cc(CC(=O)O)c2cc(Br)cnc21` [Example 324]: the IC50 is above 50 µM.
The figure for `O=Cc1c[nH]c2cnc(OCc3ccccc3)cc12` [Example 326] is above 50 µM; for `Cc1cc([N+](=O)[O-])ccc1-n1cc(C=O)c2cc(OCc3ccccc3)ncc21` [Example 327] it is above 50 µM; for `COC(=O)/C=C/c1cn(-c2ccc([N+](=O)[O-])cc2C)c2ncc(OCc3ccccc3)cc12` [Example 328] it is above 50 µM.
For the compound `COC(=O)C=Cc1cn(-c2ccc([N+](=O)[O-])cc2C)c2cnc(OCc3ccccc3)cc12` [Example 329], the IC50 was above 50 µM.
For `Cc1cc([N+](=O)[O-])ccc1-n1cc(/C=C/C(=O)O)c2cc(Br)cnc21` [Example 330] the value was above 50 µM; for `Cc1cc([N+](=O)[O-])ccc1-n1cc(C(=O)C(=O)O)c2cc(Br)cnc21` [Example 332], 10 to 50 µM.
The figure for `Cc1cc([N+](=O)[O-])ccc1-n1cc(C=CC(=O)O)c2cc(OCc3ccccc3)ncc21` [Example 333] is above 50 µM; for `COC(=O)/C=C/c1cnc2c(c1)c(CC(=O)O)cn2-c1ccc(NCCC(=O)OC)cc1C` [Example 334] it is 10 to 50 µM.
The figure for `O=C(O)Cc1cn(-c2ccc([N+](=O)[O-])cc2[N+](=O)[O-])c2ncc(Br)cc12` [Example 337] is 10 to 50 µM; for `COC(OC)c1cc([N+](=O)[O-])ccc1-n1cc(CC(=O)O)c2cc(Br)ccc21` [Example 338] it is above 50 µM; for `O=C(O)Cc1cn(-c2ccc([N+](=O)[O-])cc2C2OCCO2)c2ccc(Br)cc12` [Example 339] it is 10 to 50 µM.
On to `O=C(O)Cc1cn(Cc2csc3ccc(Cl)cc23)c2cc(OCc3ccccc3)ccc12` [Example 340], for which the IC50 was below 10 µM.
The figure for `COc1ccc2c(CC(=O)O)cn(-c3ccc([N+](=O)[O-])cc3C)c2c1` [Example 341] is above 50 µM.
`COc1cc2c(cc1OCc1ccccc1)c(CC(=O)O)cn2-c1ccc([N+](=O)[O-])cc1C` [Example 342]: the IC50 was in the range of 10 to 50 µM.
Regarding `Cc1cc([N+](=O)[O-])ccc1-n1cc(CC(=O)O)c2ccc(OCc3ccccc3)cc21` [Example 343], the IC50 fell in the range of 10 to 50 µM.
For `Cc1cc([N+](=O)[O-])ccc1-n1cc(CC(=O)O)c2cc3c(cc21)OCO3` [Example 344] the value was above 50 µM.
The figure for `COc1ccc2c(CC(=O)O)cn(Cc3csc4ccc(Cl)cc34)c2c1` [Example 345] is 10 to 50 µM; for `COc1cc2c(cc1OCc1ccccc1)c(CC(=O)O)cn2Cc1csc2ccc(Cl)cc12` [Example 346] it is 10 to 50 µM.
The figure for `O=C(O)Cc1c(Cc2csc3ccc(Cl)cc23)[nH]c2cc(OCc3ccccc3)ccc12` [Example 347] is below 10 µM; for `O=C(O)Cc1c(Cc2csc3ccc(Cl)cc23)n(Cc2csc3ccc(Cl)cc23)c2cc(OCc3ccccc3)ccc12` [Example 348] it is below 10 µM; for `CCOc1ccc2c(CC(=O)O)cn(Cc3csc4ccc(Cl)cc34)c2c1` [Example 349] it is 10 to 50 µM.
`O=C(OCc1ccccc1)C(Cc1ccccc1)c1cn(Cc2csc3ccc(Cl)cc23)c2cc(OCc3ccccc3)ccc12` (centres unmarked) [Example 350]: the IC50 was above 50 µM.
The figure for `O=C(O)C(Cc1ccccc1)c1cn(Cc2csc3ccc(Cl)cc23)c2cc(OCc3ccccc3)ccc12` (centres unmarked) [Example 351] is below 10 µM.
The figure for `C=COc1ccc2c(CC(=O)O)cn(Cc3csc4ccc(Cl)cc34)c2c1` [Example 352] is below 10 µM.
The figure for `O=C(O)Cc1cn(Cc2csc3ccc(Cl)cc23)c2cc(-c3ccccc3)ccc12` [Example 353] is below 10 µM.
Take `O=C(O)Cc1cn(CC(=O)O)c2cc(-c3ccccc3)ccc12` [Example 354]: the IC50 was above 50 µM.
Regarding `O=C(O)Cc1c[nH]c2c(Oc3ccc([N+](=O)[O-])cc3)cccc12` [Example 355], the IC50 is above 50 µM.
The figure for `O=C(O)Cc1cn(Cc2csc3ccc(Cl)cc23)c2c(Oc3ccc([N+](=O)[O-])cc3)cccc12` [Example 356] is below 10 µM; for `O=C(O)Cc1cn(Cc2csc3ccc(Cl)cc23)c2cc(Oc3ccc([N+](=O)[O-])cc3)ccc12` [Example 357] it is below 10 µM.
On to `O=C(O)Cc1cn(Cc2csc3ccc(Cl)cc23)c2cc(OCc3ccccc3)c(OCc3ccccc3)cc12` [Example 358], for which the IC50 is below 10 µM.
With `O=C(O)Cc1cn(Cc2csc3ccc(Cl)cc23)c2cc(Br)ccc12` [Example 359], the IC50 fell in the range of 10 to 50 µM.
For `O=C(O)C(Cc1csc2ccc(Cl)cc12)c1cn(Cc2csc3ccc(Cl)cc23)c2cc(Br)ccc12` (centres unmarked) [Example 360] the value was below 10 µM; for `O=C(O)C(Cc1csc2ccc(Cl)cc12)c1cn(Cc2csc3ccc(Cl)cc23)c2cc(-c3ccco3)ccc12` (centres unmarked) [Example 361], below 10 µM.
For `Nc1cccc(-c2ccc3c(CC(=O)O)cn(Cc4csc5ccc(Cl)cc45)c3c2)c1` [Example 363] the value was below 10 µM; for `C#Cc1ccc2c(CC(=O)O)cn(Cc3csc4ccc(Cl)cc34)c2c1` [Example 364], below 10 µM.

Values taken from patent US20090047246A1, “NOVEL INHIBITORS OF HEPATITIS C VIRUS REPLICATION” (InterMune, Inc., priority 2007, published 2009).
